# According to patent US10357537B2, “Cyclotides as immunosuppressive agents” (priority 2011, dated 2019):
# Experiments:
# [1] = tested on: activated human primary PBMC; assay: Anti-proliferative CFSE cell division assay on anti-CD3/CD28-activated PBMC; details: CFSE, flow cytometry; extract 50-100 μg/mL, cyclotides 1.8-14 μM, melittin 0.05-1.6 μM
# Experimental: Human peripheral blood mononuclear cells (PBMC) were isolated from the blood of healthy adult donors obtained from the Blood Transfusion Centre (University Medical Center, Freiburg, Germany). Venous blood was centrifuged on a LymphoPrep™ gradient (density: 1.077 g/cm^3, 20 min, 500×g, 20° C.; Progen, Heidelberg, Germany). Afterwards cells were washed twice with medium and cell viability and concentration was determined using the trypan blue exclusion test. PBMC were cultured in RPMI 1640 medium supplemented with 10% heat-inactivated fetal calf serum (PAA, Coelbe, Germany), 2 mM L-glutamine, 100 U/mL penicillin and […] (all from Invitrogen, Karlsruhe, Germany). The cells were cultured at 37° C. in a humidified incubator with a 5% CO2/95% air atmosphere. All experiments conducted on human material were approved by the Ethics committee of the University of Freiburg.
# (§1) After cultivation, the cells were assessed in bioassays as described in the text.
# For cell proliferation and cell division tracking analysis PBMC were harvested and washed twice in cold PBS and resuspended in PBS at a concentration of 5×10^6 cells/mL. Cells were incubated for 10 min at 37° C. with carboxyfluorescein diacetate succinimidyl ester (CFSE; 5 μM: Sigma-Aldrich, Taufkirchen, Germany). The staining reaction was stopped by washing twice with complete medium. Afterwards, the cell division progress was analysed using flow cytometric analysis.
# The anti-proliferative effect of cyclotide mutants/variants was tested according to Example 5. […] Afterwards the cell proliferation was assessed by analysing cell division using flow cytometric-based histogram analysis.
# nematodes = assay: Relative nematocidal activity (other assays, Table 2); assay type: in vivo; details: some cells print two values separated by a slash
# [2] = Relative hemolytic activity (other assays, Table 2); assay type: cell-based; details: some values given for the Ala mutant
# [3] = Relative insecticidal activity (other assays, Table 2); details: in vivo
# [4] = tested on: activated human primary PBMC; assay: Flow cytometric forward-side-scatter analysis of viability and proliferation; assay type: cell-based; details: data not shown
# Experimental: After completion of the chemical analysis, different concentrations of the crude O. affinis cyclotide extract were tested for its anti-proliferative capacity on activated human primary PBMC (FIG. 2).
# [5] = tested on: activated human primary PBMC
# Experimental: as §1
# The levels of apoptosis were determined using the annexin V-FITC apoptosis detection kit (eBioscience, Frankfurt, Germany) according to the manufacturer's instructions. After annexin V staining, propidium iodide solution (PI; eBioscience) was added and the cells were incubated in the dark, followed by a flow cytometric analysis to determine the amount of apoptosis and necrosis. CPT (30 μg/mL) and Triton-X 100 (0.5%) was used as positive controls for apoptosis and necrosis, respectively.
# Cellular apoptotic and necrotic hallmarks were measured by using inter-nucleosomal DNA fragmentation (subG1^+ cells) assay and phosphatidylserine surface analysis through a single and combinatory annexin V and propidium iodide staining. This double staining process allowed the discrimination between viable (annexin^−/PI^−), apoptotic (annexin^+/PI^− and annexin^+/PI^+) or necrotic (annexin^−/PI^+) cells.
# [6] = tested on: experimental auto-immune encephalomyelitis in C57BL/6 mice; assay type: in vivo, mouse; details: 43 days
# [7] = tested on: CNS inflammatory and demyelinating lesions; assay: Histopathology of CNS in EAE mice; assay type: in vivo, mouse; details: haemotoxylin/eosin, Luxol fast blue, Bielshowsky silver staining
# Text: At the completion of the experiments, mice were anesthetized, their blood collected (for subsequent antibody determination) and brain and spinal cord carefully removed, prior to immersion in a 4% paraformaldehyde, 0.1 M phosphate buffer solution. Segments of brain, cerebellum and spinal cord were embedded in paraffin. Sections were stained with haemotoxylin-eosin, Luxol fast blue and Bielshowsky for evidence of inflammation, demyelination and axonal damage, respectively (McQualter 2001 J Exp Med. October 1; 194(7), 873-82). Semiquantitative histological evaluation for inflammation and demyelination was performed and scored in a blind fashion as follows: 0, no inflammation; 1, cellular infiltrate only in the perivascular areas and meninges; 2, mild cellular infiltrate in parenchyma; 3, moderate cellular infiltrate in parenchyma; and 4, severe cellular infiltrate in parenchyma (Bettadapura J Neurochem 70, 199, 1593-1599 8; Okuda J Neuroimmunol 131, 2002, 115-125).
# The influence of kalata B1 vaccination on the formation of CNS inflammatory and demyelinating lesions was examined by histological studies of fixed tissue using haemotoxylin/eosin, Luxol fast blue (LFB) and Bielshowsky silver staining.
# anti-MOG antibodies = assay: MOG-specific antibody ELISA of sera; assay type: in vivo, mouse; details: Day 43, reactivity to MOG35-55
# Experimental: Antibody activity to rMOG and MOG35-55 in mouse sera was measured by ELISA, as previously described Ichikawa Cell Immunol 191, 1999, 97-104). Briefly, serum was collected at the end of the experiments and tested by ELISA with rMOG and MOG35-55 peptide-coated plates (Maxisorp, Nunc).
# Whether the suppression of EAE in mice vaccinated with kalata B1 was associated with a decrease in the production of specific antibodies to MOG was examined. Accordingly, sera from kalata B1 and PBS treated mice were collected at the completion of the experiment (Day 43) and tested for their reactivity to MOG35-55.
# [8] = tested on: spleen cell cultures of EAE mice; assay: Cytokine bead array of spleen cell supernatants; assay type: cell-based, mouse
# Experimental: For cytokine assays, 2 ml of cells (5×10^6 cells/ml) from spleens isolated 32-46 days after immunization were added to 24 well plates either alone or with MOG35-55 (10 μg/ml) or with anti-CD3ε and anti-CD 28 (20 μg/ml each). Supernatants were collected at 48 and 72 h. Quantitation of mouse cytokine content incorporating Th1, Th2 cytokines and chemokines (IFNγ, IL-2, IL-3, IL-4, IL-5, IL-6, IL-9, IL-10, IL-12p70, IL-13, GM-CSF, KC, MCP-1, MIG, and TNF) were simultaneously determined using a multiplexed bead assay (Cytometric Bead Array Flex sets [CBA]) according to the manufacturer's recommended protocol (Becton Dickinson). Acquisition of 4500 events was performed using a FACScanto II flow cytometer (Becton Dickinson, San Jose, USA) and Diva software and data analysed and fitted to a 4-parameter logistic equation using the FCAP array software (Soft Flow, Pécs, Hungary). Minimum detection levels of each cytokine were: IFNγ, 5.2 μg/ml; IL-2, 1.5 μg/ml; IL-3, 4.2 μg/ml; IL-4, 0.8 μg/ml; IL-5, 4.8 μg/ml; IL-6, 6.5 μg/ml; IL-9, 10.5 μg/ml; IL-10, 16.4 μg/ml; IL-12p70, 9.2 μg/ml; IL-13, 7.3 μg/ml; GM-CSF, 9.9 μg/ml; KC, 16.2 μg/ml; MCP-1, 29 μg/ml; MIG, 11.4 μg/ml and TNF, 17.1 μg/ml.
# Accordingly, conditioned media generated from in vitro stimulated and non-stimulated spleen cell cultures were assessed in cytokine bead array assays. A total of 15 cytokines were analysed simultaneously, including, IL2, IL3, IL4, IL5, IL6, IL9, IL10, IL12p70, IL13, IFNγ, GM-CSF, KC, MCP1, MIG and TNFα.
# [9] = tested on: splenocytes of vaccinated EAE mice; details: MOG35-55
# Experimental: Spleens were taken from mice sacrificed 32-46 days after MOG35-55 immunization. Cells were gently dispersed through a 70 μm nylon mesh (BD) into a single cell suspension, washed and cultured at 2.5×10^6 cells/ml in complete RPMI (RPMI 1640 containing 10% heat-inactivated fetal calf serum (Sigma), 2 mM L-glutamine, 100 U/ml of penicillin, 100 μg/ml of streptomycin, 50 μm 2-mercaptoethanol and 1 mm sodium pyruvate. Two hundred microliters of cell suspensions were then added to 96 well microtitre plates either alone, with MOG35-55 (20 μg/ml) or anti-CD3ε and anti-CD 28 (20 μg/ml each) and incubated for 66 h at 37° C. with 5% CO2. Ten microliters of [^3H]thymidine (1 μCi/well; Amersham, Australia; diluted 1/10 in media) were added to each well for the last 18 h. Plates were harvested onto glass fibre filters and a drop of Microscint Scintillant (Perkin Elmer) was added to each well. Counts were read using a Top Count NXT Scintillation Counter (Perkin Elmer). Presented values are the mean of three wells.
# H. contortus nematodes = details: Huang et al., 2010; read-out: IC50 nematocidal activity; cited from earlier work
# [10] = tested on: T. colibriformus nematodes; details: Huang et al., 2010; read-out: IC50 nematocidal activity; cited from earlier work
# [11] = tested on: human T-lymphoblast cells; details: read-out: IC50 cytotoxicity; Daly et al., 2004; cited from earlier work
# [12] = Barry 2003; Henriques 2011; cited from earlier work
# [13] = non-stimulated spleen cell supernatants
structure (smiles),measurement,setting,value
CC(C)C[C@@H]1NC(=O)CNC(=O)[C@H](CC(N)=O)NC(=O)[C@H](CCCNC(=N)N)NC(=O)[C@H]([C@@H](C)O)NC(=O)[C@@H]2CSSC[C@@H]3NC(=O)[C@H]([C@@H](C)O)NC(=O)CNC(=O)CNC(=O)[C@H](C(C)C)NC(=O)[C@@H]4CSSC[C@H](NC(=O)[C@H]([C@@H](C)O)NC(=O)[C@H](CSSC[C@H](NC(=O)[C@H](C(C)C)NC(=O)[C@@H]5CCCN5C1=O)C(=O)NCC(=O)N[C@@H](CCC(=O)O)C(=O)N[C@@H]([C@@H](C)O)C(=O)N4)NC(=O)CNC(=O)[C@@H]1CCCN1C(=O)[C@H]([C@@H](C)O)NC(=O)[C@H](CC(N)=O)NC3=O)C(=O)N[C@@H](CO)C(=O)N[C@@H](Cc1c[nH]c3ccccc13)C(=O)N1CCC[C@H]1C(=O)N[C@@H](C(C)C)C(=O)N2 [Kalata B1],cell division / proliferation of activated PBMC (in words),[1],dose-dependent decrease of the cell division capacity
same,Relative activity in other assays (fold difference to kB1): nematocidal,nematodes,1.0 fold difference to kB1
same,Relative activity in other assays (fold difference to kB1): hemolytic,[2],0.7 fold difference to kB1
same,Relative activity in other assays (fold difference to kB1): insecticidal,[3],1.0 fold difference to kB1
same,concentrations cytotoxic to the cells,[4],higher than 14 μM
same,induction of necrosis,"[5]; kalata B1 14 μM vs untreated control, Triton-X 100, melittin high concentrations",slightly increased
same,induction of apoptosis,"[5]; kalata B1 1.8-14 μM, CPT 30 μg/mL, melittin up to 1.6 μM",no significant influence on the induction of apoptosis
same,mean cumulative score,[6]; p<0.01 vs PBS control group,42.2±13.0
same,incidence and severity of EAE,[6]; three sc injections in IFA at weekly intervals before EAE induction,reduction in the incidence and severity of EAE
same,histological lesions of EAE,[7],some improvement in disease severity as judged by decrease in histological lesions of EAE
same,anti-MOG antibodies in sera,anti-MOG antibodies,anti-MOG antibodies were detected in all sera regardless of the vaccination regimen
same,cytokine content in stimulated supernatants,"[8]; MOG35-55 or CD3/38-stimulated, cyclotide vs control groups, data not shown",no marked changes in cytokine content
same,level of TNFα,[8]; [13],significantly reduced levels
same,level of chemokine MIG,[8]; [13],significantly reduced levels
same,"stimulation indices (SI), splenocyte proliferation to MOG",[9],2.9±0.4
same,IC50,H. contortus nematodes,2.7 µM
same,IC50,[10],4.5 µM
same,IC50,[11],3.5 µM
same,concentrations causing hemolysis and membrane disruption,[12],> 50 µM
